Assays:
Assay type in all cases: biochemical
FLT-3 = target: T1, FLT-3 (Homo sapiens, UniProt P36888); test: Kinome profiling FLT-3; settings: read-out: Inhibitory activity FLT-3; for inhibition at 0.1 µM: 100 nM
T1 sequence (P36888 27-993): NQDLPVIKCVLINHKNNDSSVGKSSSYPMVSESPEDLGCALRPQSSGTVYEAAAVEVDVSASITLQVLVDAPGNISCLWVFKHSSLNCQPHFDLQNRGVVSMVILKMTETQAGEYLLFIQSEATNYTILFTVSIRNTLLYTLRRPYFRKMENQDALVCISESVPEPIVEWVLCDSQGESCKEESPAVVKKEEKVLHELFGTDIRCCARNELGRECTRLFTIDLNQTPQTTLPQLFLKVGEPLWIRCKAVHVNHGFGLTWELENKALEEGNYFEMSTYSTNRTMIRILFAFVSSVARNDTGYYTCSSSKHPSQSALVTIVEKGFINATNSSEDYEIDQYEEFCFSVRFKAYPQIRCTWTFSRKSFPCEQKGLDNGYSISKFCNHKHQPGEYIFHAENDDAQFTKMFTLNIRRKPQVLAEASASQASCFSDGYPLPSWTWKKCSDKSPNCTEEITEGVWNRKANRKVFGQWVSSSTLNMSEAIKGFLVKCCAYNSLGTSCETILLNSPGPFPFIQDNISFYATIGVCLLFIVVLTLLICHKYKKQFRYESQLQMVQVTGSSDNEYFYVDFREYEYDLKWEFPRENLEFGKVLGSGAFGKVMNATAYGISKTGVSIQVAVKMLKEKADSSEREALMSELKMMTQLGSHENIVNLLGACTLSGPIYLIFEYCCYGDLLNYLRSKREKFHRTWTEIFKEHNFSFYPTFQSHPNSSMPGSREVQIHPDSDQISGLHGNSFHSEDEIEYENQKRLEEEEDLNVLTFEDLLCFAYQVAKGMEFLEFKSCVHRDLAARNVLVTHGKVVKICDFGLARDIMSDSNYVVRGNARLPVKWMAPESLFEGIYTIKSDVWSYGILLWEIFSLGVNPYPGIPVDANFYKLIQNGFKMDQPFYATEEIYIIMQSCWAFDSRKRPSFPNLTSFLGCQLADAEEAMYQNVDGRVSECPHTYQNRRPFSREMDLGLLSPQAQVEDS
Experimental: (§1) . The kinome-wide selectivity was determined following the methods previously reported by Mohedas et al., ACS Chem Biol 2013, 8, 1291-1302 and Sanvitale et al., PLoS One 2013, 8, e62721.

PYK2 = PYK2 (Homo sapiens, UniProt Q14289); test: Kinome profiling PYK2; settings: read-out: Inhibitory activity PYK2; for inhibition at 0.1 µM: 100 nM
Sequence of PYK2 (Q14289 whole entry): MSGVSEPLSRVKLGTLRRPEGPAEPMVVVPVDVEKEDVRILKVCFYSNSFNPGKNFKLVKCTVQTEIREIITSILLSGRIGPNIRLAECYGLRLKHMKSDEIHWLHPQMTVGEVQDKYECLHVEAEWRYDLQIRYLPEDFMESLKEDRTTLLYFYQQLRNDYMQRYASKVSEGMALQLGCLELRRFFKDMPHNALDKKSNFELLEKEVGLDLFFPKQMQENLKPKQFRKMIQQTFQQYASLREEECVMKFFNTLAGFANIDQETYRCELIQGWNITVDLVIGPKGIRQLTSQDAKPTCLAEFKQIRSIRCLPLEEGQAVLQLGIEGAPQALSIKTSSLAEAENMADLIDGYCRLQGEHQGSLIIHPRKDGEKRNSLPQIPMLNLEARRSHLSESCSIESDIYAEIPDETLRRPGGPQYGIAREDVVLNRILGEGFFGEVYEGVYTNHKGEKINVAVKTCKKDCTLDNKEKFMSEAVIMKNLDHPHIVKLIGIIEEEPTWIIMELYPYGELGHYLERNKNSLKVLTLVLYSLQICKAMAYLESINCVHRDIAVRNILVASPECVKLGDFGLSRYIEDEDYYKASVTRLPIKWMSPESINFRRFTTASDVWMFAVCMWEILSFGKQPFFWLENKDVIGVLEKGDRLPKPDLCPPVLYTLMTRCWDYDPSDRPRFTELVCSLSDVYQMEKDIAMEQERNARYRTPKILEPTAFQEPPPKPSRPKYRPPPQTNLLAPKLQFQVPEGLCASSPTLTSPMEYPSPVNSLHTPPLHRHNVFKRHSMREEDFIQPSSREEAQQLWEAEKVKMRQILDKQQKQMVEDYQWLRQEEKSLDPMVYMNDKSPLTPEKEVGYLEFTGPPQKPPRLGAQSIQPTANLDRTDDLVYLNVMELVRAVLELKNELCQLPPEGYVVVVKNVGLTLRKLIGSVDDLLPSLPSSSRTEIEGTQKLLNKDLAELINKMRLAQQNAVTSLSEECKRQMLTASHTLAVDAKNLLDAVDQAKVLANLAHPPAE
Experimental: as §1

PKC-1 = target: T2, PKC-1 (Homo sapiens, UniProt P41743); test: Kinome profiling PKC-1; settings: read-out: Inhibitory activity PKC-1; for inhibition at 0.1 µM: 100 nM
T2 sequence (P41743 2-596 limits assumed): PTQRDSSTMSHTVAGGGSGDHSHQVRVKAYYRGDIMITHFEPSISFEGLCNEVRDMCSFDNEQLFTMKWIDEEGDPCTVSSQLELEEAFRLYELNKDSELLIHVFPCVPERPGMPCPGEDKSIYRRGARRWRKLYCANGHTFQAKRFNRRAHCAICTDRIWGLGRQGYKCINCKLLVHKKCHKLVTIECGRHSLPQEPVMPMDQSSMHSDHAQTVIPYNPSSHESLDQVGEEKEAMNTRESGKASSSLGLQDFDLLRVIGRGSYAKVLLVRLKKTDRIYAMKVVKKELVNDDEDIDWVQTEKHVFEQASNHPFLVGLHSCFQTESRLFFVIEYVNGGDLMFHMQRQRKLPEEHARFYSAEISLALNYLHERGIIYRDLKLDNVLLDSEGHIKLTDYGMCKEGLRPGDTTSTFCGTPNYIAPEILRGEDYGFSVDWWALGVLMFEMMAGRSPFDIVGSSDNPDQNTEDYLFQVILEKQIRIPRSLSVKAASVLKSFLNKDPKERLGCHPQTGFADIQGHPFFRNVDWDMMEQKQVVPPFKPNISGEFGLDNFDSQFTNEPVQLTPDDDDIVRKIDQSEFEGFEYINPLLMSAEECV
Experimental: as §1

TRKC = TRKC (Homo sapiens, UniProt Q16288); test: Kinome profiling TRKC; settings: read-out: Inhibitory activity TRKC; for inhibition at 0.1 µM: 100 nM
Sequence of TRKC (Q16288 32-839): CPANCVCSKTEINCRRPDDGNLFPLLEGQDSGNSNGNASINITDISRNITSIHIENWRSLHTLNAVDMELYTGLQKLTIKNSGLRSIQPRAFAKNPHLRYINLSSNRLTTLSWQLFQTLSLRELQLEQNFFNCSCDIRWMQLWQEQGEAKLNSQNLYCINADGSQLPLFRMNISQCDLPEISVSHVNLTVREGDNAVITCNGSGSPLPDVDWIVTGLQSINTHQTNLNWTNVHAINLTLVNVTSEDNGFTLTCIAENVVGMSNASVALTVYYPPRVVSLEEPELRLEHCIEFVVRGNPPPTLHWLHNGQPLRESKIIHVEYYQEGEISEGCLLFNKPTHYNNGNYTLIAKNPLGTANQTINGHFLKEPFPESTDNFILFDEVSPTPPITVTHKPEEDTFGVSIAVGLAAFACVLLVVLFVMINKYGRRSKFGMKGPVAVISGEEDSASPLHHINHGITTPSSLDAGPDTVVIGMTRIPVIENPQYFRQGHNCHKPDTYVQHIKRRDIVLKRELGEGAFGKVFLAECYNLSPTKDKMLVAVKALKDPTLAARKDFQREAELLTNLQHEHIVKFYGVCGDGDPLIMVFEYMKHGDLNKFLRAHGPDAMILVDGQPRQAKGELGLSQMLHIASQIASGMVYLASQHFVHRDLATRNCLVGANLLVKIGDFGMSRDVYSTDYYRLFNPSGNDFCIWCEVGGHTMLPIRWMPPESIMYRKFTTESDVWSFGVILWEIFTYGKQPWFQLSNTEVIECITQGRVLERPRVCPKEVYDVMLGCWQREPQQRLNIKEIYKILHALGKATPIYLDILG
Experimental: as §1

MKNK1 = MKNK1 (Homo sapiens, UniProt Q9BUB5); test: Kinome profiling MKNK1; settings: read-out: Inhibitory activity MKNK1; for inhibition at 0.1 µM: 100 nM
Sequence of MKNK1 (Q9BUB5 whole entry): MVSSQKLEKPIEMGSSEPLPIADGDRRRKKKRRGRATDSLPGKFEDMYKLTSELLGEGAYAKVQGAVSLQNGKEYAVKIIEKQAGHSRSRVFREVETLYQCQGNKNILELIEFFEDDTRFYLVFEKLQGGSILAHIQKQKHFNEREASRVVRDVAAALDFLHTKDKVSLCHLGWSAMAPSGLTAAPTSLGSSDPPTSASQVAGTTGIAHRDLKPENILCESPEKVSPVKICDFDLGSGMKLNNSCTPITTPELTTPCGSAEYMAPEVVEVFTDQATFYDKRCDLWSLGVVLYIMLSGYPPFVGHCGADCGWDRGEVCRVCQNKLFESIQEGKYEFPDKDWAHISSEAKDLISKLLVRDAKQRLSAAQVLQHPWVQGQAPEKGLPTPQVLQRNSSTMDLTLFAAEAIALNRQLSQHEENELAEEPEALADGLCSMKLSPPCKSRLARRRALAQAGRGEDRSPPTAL
Experimental: as §1

PI3-K-α = PI3-K-α (Homo sapiens, UniProt P42336); test: Kinome profiling PI3-K-α; settings: read-out: Inhibitory activity PI3-K-α; for inhibition at 0.1 µM: 100 nM
Sequence of PI3-K-α (P42336 whole entry): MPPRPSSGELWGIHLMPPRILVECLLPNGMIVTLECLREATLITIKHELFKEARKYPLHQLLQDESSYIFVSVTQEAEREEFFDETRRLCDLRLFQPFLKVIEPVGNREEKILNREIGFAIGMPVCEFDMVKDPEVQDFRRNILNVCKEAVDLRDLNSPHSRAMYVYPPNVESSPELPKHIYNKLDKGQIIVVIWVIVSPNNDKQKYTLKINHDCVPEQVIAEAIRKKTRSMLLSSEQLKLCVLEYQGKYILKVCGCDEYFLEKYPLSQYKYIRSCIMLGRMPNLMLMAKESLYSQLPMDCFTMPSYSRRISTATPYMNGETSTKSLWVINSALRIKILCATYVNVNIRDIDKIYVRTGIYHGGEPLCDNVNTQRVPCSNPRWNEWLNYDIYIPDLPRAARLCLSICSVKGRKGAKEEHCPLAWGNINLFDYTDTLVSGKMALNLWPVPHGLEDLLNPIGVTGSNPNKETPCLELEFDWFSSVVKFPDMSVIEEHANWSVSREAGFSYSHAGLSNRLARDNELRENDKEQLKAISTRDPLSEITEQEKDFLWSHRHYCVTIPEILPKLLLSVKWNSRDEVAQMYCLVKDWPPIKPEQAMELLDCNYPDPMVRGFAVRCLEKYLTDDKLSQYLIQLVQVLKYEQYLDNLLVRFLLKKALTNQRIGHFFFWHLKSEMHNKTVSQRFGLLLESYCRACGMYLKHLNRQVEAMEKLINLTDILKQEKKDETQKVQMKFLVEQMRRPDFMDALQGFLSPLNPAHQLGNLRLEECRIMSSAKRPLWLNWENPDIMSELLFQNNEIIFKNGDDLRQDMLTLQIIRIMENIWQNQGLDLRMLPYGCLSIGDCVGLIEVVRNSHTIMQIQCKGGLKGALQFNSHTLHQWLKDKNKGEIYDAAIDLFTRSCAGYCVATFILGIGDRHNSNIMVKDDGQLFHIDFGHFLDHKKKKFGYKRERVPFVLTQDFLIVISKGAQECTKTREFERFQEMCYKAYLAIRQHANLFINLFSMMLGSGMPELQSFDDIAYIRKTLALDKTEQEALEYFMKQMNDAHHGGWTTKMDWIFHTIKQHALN
Sequence of PI3-K-α (P27986 whole entry partner): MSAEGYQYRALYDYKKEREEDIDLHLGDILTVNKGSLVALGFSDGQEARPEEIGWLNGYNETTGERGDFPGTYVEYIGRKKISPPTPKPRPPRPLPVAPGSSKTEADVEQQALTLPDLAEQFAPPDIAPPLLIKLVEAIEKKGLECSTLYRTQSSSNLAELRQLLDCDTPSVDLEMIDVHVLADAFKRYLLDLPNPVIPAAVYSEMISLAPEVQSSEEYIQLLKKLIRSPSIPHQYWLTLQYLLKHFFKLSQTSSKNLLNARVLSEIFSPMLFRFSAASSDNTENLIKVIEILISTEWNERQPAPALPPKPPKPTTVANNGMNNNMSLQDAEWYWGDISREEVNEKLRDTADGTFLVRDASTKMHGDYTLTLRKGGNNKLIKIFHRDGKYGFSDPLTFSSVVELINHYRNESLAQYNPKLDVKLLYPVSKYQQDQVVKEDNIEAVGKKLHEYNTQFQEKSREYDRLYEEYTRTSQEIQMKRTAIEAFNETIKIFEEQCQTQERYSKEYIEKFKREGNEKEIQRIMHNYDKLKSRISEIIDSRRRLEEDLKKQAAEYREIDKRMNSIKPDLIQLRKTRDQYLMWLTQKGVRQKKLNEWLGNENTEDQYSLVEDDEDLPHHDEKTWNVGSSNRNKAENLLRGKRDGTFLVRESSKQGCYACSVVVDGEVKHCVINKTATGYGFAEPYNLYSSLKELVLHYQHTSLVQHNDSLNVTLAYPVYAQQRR
Experimental: as §1

Compound	inhibition at 0.1 µM (FLT-3)	inhibition at 1 µM (FLT-3)	inhibition at 0.1 µM (PYK2)	inhibition at 1 µM (PYK2)	inhibition at 0.1 µM (PKC-1)	inhibition at 1 µM (PKC-1)	inhibition at 0.1 µM (TRKC)	inhibition at 1 µM (TRKC)	inhibition at 0.1 µM (MKNK1)	inhibition at 1 µM (MKNK1)	inhibition at 0.1 µM (PI3-K-α)	inhibition at 1 µM (PI3-K-α)
COc1cc(-c2cc(-c3ccc(N4CCNCC4)cc3)cnc2C)cc(OC)c1OC [Compound 10, 1-(4-(6-methyl-5-(3,4,5-trimethoxyphenyl)pyridin-3-yl)phenyl)piperazine]	3%	18%	1%	5%	12%	3%	4%	4%	3%	5%	5%	7%
COc1cc(-c2cc(-c3ccc(N4CCNCC4)cc3)cnc2N)cc(OC)c1OC [Compound 15, 5-(4-(piperazin-1-yl)phenyl)-3-(3,4,5-trimethoxyphenyl)pyridin-2-amine]	1%	5%	10%	14%	1%	1%	3%	3%	3%	5%	4%	4%

— patent US20170190705A1, “Compositions and Methods for Inhibiting BMP” (THE BRIGHAM AND WOMAN'S HOSPITAL, INC., priority 2014, published 2017)
